Experimental data taken from patent publication US8431593B2, “Heteroaryl amide derivatives” (H. Lundbeck A/S, priority 2006, dated 2013).

Biological target: T1, P2X7 receptor (Homo sapiens, UniProt Q99572)
T1 construct: host or cells: SH-SY5Y
T1 sequence (Q99572 1-595): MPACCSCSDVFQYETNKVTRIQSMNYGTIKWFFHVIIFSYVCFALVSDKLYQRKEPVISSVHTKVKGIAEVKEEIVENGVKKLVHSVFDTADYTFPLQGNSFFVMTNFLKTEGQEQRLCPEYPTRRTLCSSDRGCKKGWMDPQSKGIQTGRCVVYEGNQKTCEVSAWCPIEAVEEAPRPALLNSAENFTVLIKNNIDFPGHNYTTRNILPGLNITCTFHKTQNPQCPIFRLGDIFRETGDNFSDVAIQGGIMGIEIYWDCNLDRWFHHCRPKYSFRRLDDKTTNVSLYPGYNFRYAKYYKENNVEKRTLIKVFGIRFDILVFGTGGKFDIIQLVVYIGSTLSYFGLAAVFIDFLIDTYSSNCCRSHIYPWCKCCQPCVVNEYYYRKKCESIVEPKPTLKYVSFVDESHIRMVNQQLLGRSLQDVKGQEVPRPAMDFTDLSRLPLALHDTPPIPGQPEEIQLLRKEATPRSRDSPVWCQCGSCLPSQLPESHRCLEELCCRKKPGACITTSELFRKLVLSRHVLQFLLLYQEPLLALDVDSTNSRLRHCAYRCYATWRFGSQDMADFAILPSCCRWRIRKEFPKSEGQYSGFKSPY
Experiment: P2X7 calcium mobilization assay, high throughput, antagonist activity (Example 4A)
Assay type: cell-based
Conditions: P2X7 calcium mobilization, Example 4A; 50% decrease in the fluorescence response of cells exposed to 80 μM of (2′(3′)-O-(4-benzoyl-benzoyl)adenosine 5′-triphosephate); read-out: IC50
Outline: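 Cells plated 100,000/well the day before; after 1 h dye loading and one rinse, cells were preincubated 1 h at room temperature with test compound. Calcium mobilization then read on FLIPR^TETRA; maximum RFU corrected by subtracting mean no-agonist response and referenced to mean agonist-control maximum.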

SMILES | IC50 [nM]
CC(C)CC(CNC(=O)c1cccc2nc(C(C)N3CCC3)cn12)c1ccc(Cl)cc1 (stereo not shown) [Compound 1033, 2-(1-azetidin-1-ylethyl)-N-[2-(4-chlorophenyl)-4-methylpentyl] imidazo[1,2-a] pyridine-5-carboxamide] | < 2000
CC(C)CC(CNC(=O)c1cccc2nc(CN3CCC3)cn12)c1ccc(Cl)cc1 (stereo not shown) [Compound 1034, 2-(azetidin-1-ylmethyl)-N-[2-(4-chlorophenyl)-4-methylpentyl] imidazo[1,2-a] pyridine-5-carboxamide] | < 2000
CC(C)CC(CNC(=O)c1cccc2nc(C(C)N3CCCC3)cn12)c1ccc(Cl)cc1 (stereo not shown) [Compound 1035, N-[2-(4-chlorophenyl)-4-methylpentyl]-2-(1-pyrrolidin-1-ylethyl) imidazo[1,2-a]pyridine-5-carboxamide] | < 2000
CC(C)CC(CNC(=O)c1cccc2nc(CN3CCCC3)cn12)c1ccc(Cl)cc1 (stereo not shown) [Compound 1036, N-[2-(4-chlorophenyl)-4-methylpentyl]-2-(pyrrolidin-1-ylmethyl) imidazo[1,2-a]pyridine-5-carboxamide] | < 2000
CC(C)CC(CNC(=O)c1cccc2nc(C(C)N3CCOCC3)cn12)c1ccc(Cl)cc1 (stereo not shown) [Compound 1037, N-[2-(4-chlorophenyl)-4-methylpentyl]-2-(1-morpholin-4-ylethyl) imidazo[1,2-a]pyridine-5-carboxamide] | < 2000
CC(C)CC(CNC(=O)c1cccc2nc(CN3CCOCC3)cn12)c1ccc(Cl)cc1 (stereo not shown) [Compound 1038, N-[2-(4-chlorophenyl)-4-methylpentyl]-2-(morpholin-4-ylmethyl) imidazo[1,2-a]pyridine-5-carboxamide] | < 2000
CC(C)CC(CNC(=O)c1cccc2nc(CN3CC[C@@H](N(C)C)C3)cn12)c1ccc(Cl)cc1 (stereo partly drawn) [Compound 1039, N-[2-(4-chlorophenyl)-4-methylpentyl]-2-{[(3R)-3-(dimethylamino)pyrrolidin-1-yl]methyl} imidazo[1,2-a]pyridine-5-carboxamide] | < 2000
O=C(NCC12CC3CC(CC(C3)C1)C2)c1cccc2nc(CCN3CCCC3)cn12 [Compound 1040, N-(adamantan-1-ylmethyl)-2-(2-pyrrolidin-1-ylethyl) imidazo [1,2-a]pyridine-5-carboxamide] | < 2000
CC(C)CC(CNC(=O)c1cccc2nc(CCN3CCCC3)cn12)c1ccc(Cl)cc1 (stereo not shown) [Compound 1041, N-[2-(4-chlorophenyl)-4-methylpentyl]-2-(2-pyrrolidin-1-ylethyl) imidazo[1,2-a]pyridine-5-carboxamide] | < 2000
CC(C)CC(CNC(=O)c1cccc2nc(CCN3CCCC3)cn12)c1ccc(C(F)(F)F)cc1 (stereo not shown) [Compound 1042, N-{4-methyl-2-[4-(Irifluoromethyl)phenyl]pentyl}-2-(2-pyrrolidin-1-ylethyl) imidazo[1,2-a]pyridine-5-carboxamide] | < 2000
O=C(NCC1(c2ccc(C(F)(F)F)cc2)CCCCC1)c1cccc2nc(CN3CCCC3)cn12 [Compound 1044, 2-(pyrrolidin-1-ylmethyl)-N-({1-[4-(trifluoromethyl)phenyl]cyclohexyl}methyl) imidazo[1,2-a] pyridine-5-carboxamide] | < 2000
O=C(NCC1(c2ccc(F)cc2)CCCCC1)c1cccc2nc(CN3CCCC3)cn12 [Compound 1045, N-{[1-(4-fluorophenyl)cyclohexyl]methyl}-2-(pyrrolidin-1-ylmethyl) imidazo[1,2-a]pyridine-5-carboxamide] | < 2000
O=C(NCC1(c2ccc(Cl)c(F)c2)CCCCC1)c1cccc2nc(CN3CCCC3)cn12 [Compound 1046, N-{[1-(4-chloro-3-fluorophenyl)cyclohexyl]methyl}-2-(pyrrolidin-1-ylmethyl) imidazo[1,2-a]pyridine-5-carboxamide] | < 2000
O=C(NCC1(c2ccc(Cl)cc2)CCCCC1)c1cccc2nc(CN3CCCC3)cn12 [Compound 1047, N-{[1-(4-chlorophenyl)cyclohexyl]methyl}-2-(pyrrolidin-1-ylmethyl) imidazo[1,2-a]pyridine-5-carboxamide] | < 2000
Cc1ccc(C(CNC(=O)c2cccc3nc(CN4CCCC4)cn23)CC(C)C)cc1 (stereo not shown) [Compound 1048, N-[4-methyl-2-(4-methylphenyl)pentyl]-2-(pyrrolidin-1-ylmethyl) imidazo [1,2-a] pyridine-5-carboxamide] | < 2000
Cc1ccc(C2(CNC(=O)c3cccc4nc(CN5CCCC5)cn34)CCCCC2)cc1 [Compound 1049, N-{[1-(4-methylphenyl)cyclohexyl]methyl}-2-(pyrrolidin-1-ylmethyl) imidazo[1,2-a]pyridine-5-carboxamide] | < 2000

SMILES | IC50 [nM]
CN1CCCC(NC(=O)Cc2cn3c(C(=O)NCC45CC6CC(CC(C6)C4)C5)cccc3n2)C1 (stereo not shown) [Compound 1050, N-(adamantan-1-ylmethyl)-2-{2-[(1-methylpiperidin-3-yl)amino]-2-oxoethyl} imidazo[1,2-a]pyridine-5-carboxamide] | < 2000
CC(C)CC(CNC(=O)c1cccc2nccn12)c1ccc(C(F)(F)F)nc1 (stereo not shown) [Compound 1051, N-{4-methyl-2-[6-(trifluoromethyl)pyridin-3-yl]pentyl} imidazo[1,2-a]pyridine-5-carboxamide] | < 2000
CC(C)CC(CNC(=O)c1cccc2ncc(Cl)n12)c1ccc(C(F)(F)F)nc1 (stereo not shown) [Compound 1052, 3-chloro-N-{4-methyl-2-[6-(trifluoromethyl)pyridin-3-yl]pentyl} imidazo[1,2-a]pyridine-5-carboxamide] | < 2000
CC(C)CC(CNC(=O)c1cccc2nc(CN3CCOCC3)cn12)c1ccc(C(F)(F)F)nc1 (stereo not shown) [Compound 1053, N-{4-methyl-2-[6-(trifluoromethyl)pyridin-3-yl]pentyl}-2-(morpholin-4-ylmethyl) imidazo[1,2-a]pyridine-5-carboxamide] | < 2000
O=C(NCC(c1ccc(Cl)cc1)N1CCCCC1)c1cccc2ncc(Cl)n12 (stereo not shown) [Compound 1054, 3-chloro-N-[2-(4-chlorophenyl)-2-piperidin-1-ylethyl]imidazo[1,2-a]pyridine-5-carboxamide] | < 2000
O=C(NCC(c1ccc(Cl)cc1)N1CCOCC1)c1cccc2ncc(Cl)n12 (stereo not shown) [Compound 1055, 3-chloro-N-[2-(4-chlorophenyl)-2-morpholin-4-ylethyl]imidazo[1,2-a]pyridine-5-carboxamide] | < 2000
O=C(NCC(c1ccc(Cl)cc1)N1CCCCC1)c1cccc2ncc(Br)n12 (stereo not shown) [Compound 1056, 3-bromo-N-[2-(4-chlorophenyl)-2-piperidin-1-ylethyl]imidazo[1,2-a]pyridine-5-carboxamide] | < 2000
O=C(NCC(c1ccc(Cl)cc1)N1CCOCC1)c1cccc2ncc(Br)n12 (stereo not shown) [Compound 1057, 3-bromo-N-[2-(4-chlorophenyl)-2-morpholin-4-ylethyl] imidazo[1,2-a] pyridine-5-carboxamide] | < 2000
O=C(NCC(c1ccc(C(F)(F)F)nc1)N1CCCCC1)c1cccc2ncc(Cl)n12 (stereo not shown) [Compound 1058, 3-chloro-N-{2-piperidin-1-yl-2-[6-(trifluoromethyl)pyridin-3-yl]ethyl}imidazo[1,2-a]pyridine-5-carboxamide] | < 2000
CCN(Cc1cn2c(C(=O)NCC34CC5CC(CC(C5)C3)C4)cccc2n1)C(=O)OC(C)OC(C)=O (stereo not shown) [Compound 1059, 1-{[({5-[(adamantan-1-ylmethyl)carbamoyl]imidazo [1,2-a]pyridin-2-yl}methyl)(ethyl)carbamoyl]oxy} ethyl acetate] | < 2000
CC(=O)OC(C)OC(=O)N[C@@H]1CCCN(C(=O)Cc2cn3c(C(=O)NCC45CC6CC(CC(C6)C4)C5)cccc3n2)C1 (stereo partly drawn) [Compound 1060, 1-({[(3R)-1-({5-[(adamantan-1-ylmethyl)carbamoyl]imidazo[1,2-a]pyridin-2-yl}acetyl)piperidin-3-yl]carbamoyl}oxy)ethyl acetate] | < 2000
CCOC(=O)c1cn2cc(C(=O)NCC34CC5CC(CC(C5)C3)C4)ccc2n1 [Compound 1061, ethyl 6-[(adamantan-1-ylmethyl)carbamoyl] imidazo [1,2-a]pyridine-2-carboxylate] | < 2000
O=C(NCC12CC3CC(CC(C3)C1)C2)c1ccc2nc(CCl)cn2c1 [Compound 1062, N-(adamantan-1-ylmethyl)-2-(chloromethyl) imidazo [1,2-a]pyridine-6-carboxamide] | < 2000
CCOC(=O)Cc1cn2cc(C(=O)NCC34CC5CC(CC(C5)C3)C4)ccc2n1 [Compound 1063, ethyl {6-[(adamantan-1-ylmethyl)carbamoyl]imidazo[1,2-a]pyridin-2-yl} acetate] | < 2000
O=C(NCC12CC3CC(CC(C3)C1)C2)c1ccn2cc(CCl)nc2c1 [Compound 1064, N-(adamantan-1-ylmethyl)-2-(chloromethyl)imidazo [1,2-a]pyridine-7-carboxamide] | < 2000
